According to US4590205A, “Antiinflammatory and/or analgesic 2,3-diaryl-5-halo thiophenes” (E. I. Du Pont de Nemours and Company, priority 1984, dated 1986):

test system: adjuvant-induced arthritis in rats; assay: Established adjuvant-induced arthritis in rats (decrease of paw volume); assay type: in vivo, Charles River Lewis male rats; settings: Rattus norvegicus, po, read-out: Adjuvant Arthritis ED50

| SMILES | ED50 |
| --- | --- |
| CC(=O)Oc1ccccc1C(=O)O [Aspirin, aspirin, reference compound] | 305 mg/kg |
| COc1ccc2c(c1)c(CC(=O)O)c(C)n2C(=O)c1ccc(Cl)cc1 [Indomethacin, indomethacin, reference compound] | 0.3 mg/kg |

same assay, conditions: Rattus norvegicus; oral gavage, 7 daily doses; ED50% decrease from control paw volume; read-out: Adjuvant Arthritis ED50

| SMILES | ED50 |
| --- | --- |
| Fc1ccc(-c2cc(Br)sc2-c2ccc(F)cc2)cc1 [Example 1, 5-Bromo-2,3-bis(4-fluorophenyl)thiophene] | > 60 mg/kg |
| COc1ccc(-c2cc(Cl)sc2-c2ccc(OC)cc2)cc1 [Example 2, 5-Chloro-2,3-bis(4-methoxyphenyl)thiophene] | 4.5 mg/kg |
| CSc1ccc(-c2sc(Br)cc2-c2ccc(F)cc2)cc1 [Example 5, 5-bromo-3-(4-fluorophenyl)-2-(4-methylthiophenyl)thiophene] | 1.4 mg/kg |
| CSc1ccc(-c2cc(Br)sc2-c2ccc(F)cc2)cc1 [Example 6, 5-bromo-2-(4-fluorophenyl)-3-(4-methylthiophenyl)thiophene] | 0.25 mg/kg |
| Cc1ccc(-c2cc(Br)sc2-c2ccc(C)cc2)cc1 [Example 7] | > 81 mg/kg |
| COc1ccc(-c2cc(Br)sc2-c2ccc(SC)cc2)cc1 [Example 8] | 2.9 mg/kg |
| CS(=O)(=O)c1ccc(-c2sc(Br)cc2-c2ccc(F)cc2)cc1 [Example 9, 5-bromo-3-(4-fluorophenyl)-2-(4-methylsulfonylphenyl)thiophene] | 0.4 mg/kg |
| CC(C)Cc1ccc(C(C)C(=O)O)cc1 (stereo not drawn) [Ibuprofen, ibuprofen, reference compound] | 100 mg/kg |
| CCCCC1C(=O)N(c2ccccc2)N(c2ccccc2)C1=O [Phenylbutazone, phenylbutazone, reference compound] | 10 mg/kg |

same assay, conditions: daily dose 81 (mg/kg), oral

| SMILES | % Decrease from control paw volume at indicated daily dose |
| --- | --- |
| COc1ccc(-c2cc(I)sc2-c2ccc(OC)cc2)cc1 [Example 3, 5-Iodo-2,3-bis(4-methoxyphenyl)thiophene] | 46% |

test system: characteristic stretching or writhing syndrome which is indicative of pain induced by phenylquinone; assay: Phenylquinone writhing test (PQW), analgesic activity; assay type: in vivo, female white mice; settings: Mus musculus, po, read-out: PQW ED50
Experimental: A test compound suspended in 1% methylcellulose was given orally to fasted (17-21 hours) female white mice, 5-20 animals per double blind test. Aqueous (0.01% phenyl-p-benzoquinone) phenylquinone, 0.20 ml per mouse, was injected intraperitoneally 6 minutes before observations were begun.

| SMILES | ED50 |
| --- | --- |
| CC(=O)Oc1ccccc1C(=O)O [Aspirin, aspirin, reference compound] | 135 mg/kg |
| COc1ccc2c(c1)c(CC(=O)O)c(C)n2C(=O)c1ccc(Cl)cc1 [Indomethacin, indomethacin, reference compound] | 0.35 mg/kg |

same assay, conditions: Mus musculus; oral, fasted mice; effective analgesic dose for 50% of the mice; read-out: PQW ED50

| SMILES | ED50 |
| --- | --- |
| Fc1ccc(-c2cc(Br)sc2-c2ccc(F)cc2)cc1 [Example 1, 5-Bromo-2,3-bis(4-fluorophenyl)thiophene] | 6.8 mg/kg |
| COc1ccc(-c2cc(Cl)sc2-c2ccc(OC)cc2)cc1 [Example 2, 5-Chloro-2,3-bis(4-methoxyphenyl)thiophene] | 2.1 mg/kg |
| COc1ccc(-c2cc(I)sc2-c2ccc(OC)cc2)cc1 [Example 3, 5-Iodo-2,3-bis(4-methoxyphenyl)thiophene] | < 15 mg/kg |
| CSc1ccc(-c2sc(Br)cc2-c2ccc(F)cc2)cc1 [Example 5, 5-bromo-3-(4-fluorophenyl)-2-(4-methylthiophenyl)thiophene] | > 108 mg/kg |
| CSc1ccc(-c2cc(Br)sc2-c2ccc(F)cc2)cc1 [Example 6, 5-bromo-2-(4-fluorophenyl)-3-(4-methylthiophenyl)thiophene] | > 108 mg/kg |
| Cc1ccc(-c2cc(Br)sc2-c2ccc(C)cc2)cc1 [Example 7] | 2.9 mg/kg |
| COc1ccc(-c2cc(Br)sc2-c2ccc(SC)cc2)cc1 [Example 8] | < 15 mg/kg |
| CS(=O)(=O)c1ccc(-c2sc(Br)cc2-c2ccc(F)cc2)cc1 [Example 9, 5-bromo-3-(4-fluorophenyl)-2-(4-methylsulfonylphenyl)thiophene] | > 108 mg/kg |
| CC(C)Cc1ccc(C(C)C(=O)O)cc1 (stereo not drawn) [Ibuprofen, ibuprofen, reference compound] | 10 mg/kg |
| CCCCC1C(=O)N(c2ccccc2)N(c2ccccc2)C1=O [Phenylbutazone, phenylbutazone, reference compound] | 80 mg/kg |
